The source of these data is ChEMBL document CHEMBL4152379, “Discovery of Pyrrolidine Sulfonamides as Selective and Orally Bioavailable Antagonists of Transient Receptor Potential Vanilloid-4 (TRPV4)” (J Med Chem, 2018).

The target in data set [1] is T1, Short transient receptor potential channel 6 (Homo sapiens, UniProt Q9Y210).
T1 sequence (Q9Y210 whole entry): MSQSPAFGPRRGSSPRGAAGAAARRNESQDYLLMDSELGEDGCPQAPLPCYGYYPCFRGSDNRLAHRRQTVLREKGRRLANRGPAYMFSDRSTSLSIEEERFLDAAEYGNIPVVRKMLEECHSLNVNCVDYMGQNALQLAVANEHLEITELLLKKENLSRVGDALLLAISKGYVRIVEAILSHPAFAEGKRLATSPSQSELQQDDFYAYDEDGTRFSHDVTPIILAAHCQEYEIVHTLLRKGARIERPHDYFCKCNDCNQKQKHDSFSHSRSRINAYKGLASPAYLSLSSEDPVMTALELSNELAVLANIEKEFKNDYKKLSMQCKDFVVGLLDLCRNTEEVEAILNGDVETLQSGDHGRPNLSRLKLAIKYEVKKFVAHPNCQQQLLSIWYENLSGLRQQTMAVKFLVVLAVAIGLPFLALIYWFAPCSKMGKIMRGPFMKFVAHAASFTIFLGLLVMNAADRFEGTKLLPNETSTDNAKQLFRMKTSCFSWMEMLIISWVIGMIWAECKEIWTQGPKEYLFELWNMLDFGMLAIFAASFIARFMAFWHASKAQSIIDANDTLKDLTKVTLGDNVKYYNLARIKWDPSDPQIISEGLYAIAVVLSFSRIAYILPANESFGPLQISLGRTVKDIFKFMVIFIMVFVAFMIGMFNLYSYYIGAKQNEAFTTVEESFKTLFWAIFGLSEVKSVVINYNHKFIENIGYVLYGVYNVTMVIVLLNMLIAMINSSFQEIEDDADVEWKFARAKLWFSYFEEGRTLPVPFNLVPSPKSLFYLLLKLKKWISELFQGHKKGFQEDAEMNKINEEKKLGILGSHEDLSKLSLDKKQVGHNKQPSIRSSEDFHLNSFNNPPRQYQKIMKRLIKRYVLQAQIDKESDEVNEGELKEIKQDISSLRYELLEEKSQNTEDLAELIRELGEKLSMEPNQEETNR
The data set is described as follows: Inhibition of TRPC6 (unknown origin).

Data set [2] addresses Transient receptor potential cation channel subfamily M member 2 (Homo sapiens, UniProt O94759). The data set is described as follows: Inhibition of TRPM2 (unknown origin).
Data set [3] has as its target T2, Short transient receptor potential channel 3 (Homo sapiens, UniProt Q13507).
T2 sequence (Q13507 whole entry): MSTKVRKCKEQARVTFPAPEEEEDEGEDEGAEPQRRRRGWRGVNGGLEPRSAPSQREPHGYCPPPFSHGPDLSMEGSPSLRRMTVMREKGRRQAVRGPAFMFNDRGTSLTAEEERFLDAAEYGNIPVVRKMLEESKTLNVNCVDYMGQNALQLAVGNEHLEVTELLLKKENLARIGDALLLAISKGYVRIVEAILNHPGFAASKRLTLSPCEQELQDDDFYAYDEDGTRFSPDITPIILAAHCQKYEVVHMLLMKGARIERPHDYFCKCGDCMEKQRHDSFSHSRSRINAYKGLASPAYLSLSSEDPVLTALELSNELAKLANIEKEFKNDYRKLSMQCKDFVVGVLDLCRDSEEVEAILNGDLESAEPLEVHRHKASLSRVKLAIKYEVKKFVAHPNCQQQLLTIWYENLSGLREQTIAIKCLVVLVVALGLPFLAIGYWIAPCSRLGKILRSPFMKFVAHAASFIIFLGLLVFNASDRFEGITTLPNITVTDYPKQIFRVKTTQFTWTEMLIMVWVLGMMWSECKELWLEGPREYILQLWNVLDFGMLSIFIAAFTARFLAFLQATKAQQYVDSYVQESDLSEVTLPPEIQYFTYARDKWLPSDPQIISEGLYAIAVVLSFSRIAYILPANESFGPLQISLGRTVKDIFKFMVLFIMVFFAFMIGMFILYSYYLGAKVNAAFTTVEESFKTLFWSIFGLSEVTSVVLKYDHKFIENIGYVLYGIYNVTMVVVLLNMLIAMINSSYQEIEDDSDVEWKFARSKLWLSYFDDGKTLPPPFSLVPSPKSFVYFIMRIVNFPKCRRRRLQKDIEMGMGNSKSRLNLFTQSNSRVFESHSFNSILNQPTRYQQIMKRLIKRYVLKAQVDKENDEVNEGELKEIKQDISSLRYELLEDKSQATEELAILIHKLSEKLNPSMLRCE
The data set is described as follows: Inhibition of TRPC3 (unknown origin).

Data set [4] in a line: Fraction unbound in Sprague-Dawley rat plasma. It is filed as ADME, cell-free.
Data set [5] has as its target Transient receptor potential cation channel subfamily V member 4 (Homo sapiens, UniProt Q9HBA0). The data set is described as follows: Antagonist activity at human TRPV4 expressed in BHK/AC9 or HEK MSR2 cells assessed as inhibition of GSK634775-induced Ca2+ flux pre-incubated for 10 mins before agonist addition by FLIPR assay.
Data set [6] in a line: Aqueous solubility of the compound. In kind it is physicochemical. The following applies: buffer.
For data set [7], the target named is Transient receptor potential cation channel subfamily M member 8 (Homo sapiens, UniProt Q7Z2W7). The data set is described as follows: Inhibition of TRPM8 (unknown origin).
For data set [8], the target named is Transient receptor potential cation channel subfamily V member 1 (Homo sapiens, UniProt Q8NER1). The data set is described as follows: Inhibition of TRPV1 (unknown origin).
For another data set, the species on record is Rattus norvegicus. The data set is described as follows: Unbound clearance in Sprague-Dawley rat. It is filed as ADME, organism-based. Particulars: in vivo.

Converted amounts (≈) assume the structure as drawn.

Sequence of Transient receptor potential cation channel subfamily V member 4 (Q9HBA0 whole entry): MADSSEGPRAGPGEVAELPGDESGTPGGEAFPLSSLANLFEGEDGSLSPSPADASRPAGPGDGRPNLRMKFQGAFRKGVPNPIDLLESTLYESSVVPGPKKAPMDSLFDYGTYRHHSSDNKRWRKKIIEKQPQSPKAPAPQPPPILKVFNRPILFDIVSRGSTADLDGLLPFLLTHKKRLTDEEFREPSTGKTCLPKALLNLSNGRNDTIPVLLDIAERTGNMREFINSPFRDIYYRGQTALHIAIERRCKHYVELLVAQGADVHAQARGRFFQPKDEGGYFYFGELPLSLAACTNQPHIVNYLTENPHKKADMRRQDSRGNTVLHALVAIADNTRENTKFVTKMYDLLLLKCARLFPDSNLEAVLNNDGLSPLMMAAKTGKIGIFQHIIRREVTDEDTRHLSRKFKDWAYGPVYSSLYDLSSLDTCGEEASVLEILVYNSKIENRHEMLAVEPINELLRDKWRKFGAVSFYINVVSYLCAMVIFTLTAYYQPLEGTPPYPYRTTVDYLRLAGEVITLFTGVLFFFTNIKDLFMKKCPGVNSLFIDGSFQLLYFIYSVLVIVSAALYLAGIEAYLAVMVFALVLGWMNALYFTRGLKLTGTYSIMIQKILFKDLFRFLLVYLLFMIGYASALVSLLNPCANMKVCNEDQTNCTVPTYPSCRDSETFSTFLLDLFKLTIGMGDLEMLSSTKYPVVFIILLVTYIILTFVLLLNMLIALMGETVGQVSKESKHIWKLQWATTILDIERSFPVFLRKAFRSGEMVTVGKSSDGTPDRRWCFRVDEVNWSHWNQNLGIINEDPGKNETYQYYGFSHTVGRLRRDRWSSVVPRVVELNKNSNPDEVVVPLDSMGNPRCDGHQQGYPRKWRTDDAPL
Sequence of Transient receptor potential cation channel subfamily M member 8 (Q7Z2W7 whole entry): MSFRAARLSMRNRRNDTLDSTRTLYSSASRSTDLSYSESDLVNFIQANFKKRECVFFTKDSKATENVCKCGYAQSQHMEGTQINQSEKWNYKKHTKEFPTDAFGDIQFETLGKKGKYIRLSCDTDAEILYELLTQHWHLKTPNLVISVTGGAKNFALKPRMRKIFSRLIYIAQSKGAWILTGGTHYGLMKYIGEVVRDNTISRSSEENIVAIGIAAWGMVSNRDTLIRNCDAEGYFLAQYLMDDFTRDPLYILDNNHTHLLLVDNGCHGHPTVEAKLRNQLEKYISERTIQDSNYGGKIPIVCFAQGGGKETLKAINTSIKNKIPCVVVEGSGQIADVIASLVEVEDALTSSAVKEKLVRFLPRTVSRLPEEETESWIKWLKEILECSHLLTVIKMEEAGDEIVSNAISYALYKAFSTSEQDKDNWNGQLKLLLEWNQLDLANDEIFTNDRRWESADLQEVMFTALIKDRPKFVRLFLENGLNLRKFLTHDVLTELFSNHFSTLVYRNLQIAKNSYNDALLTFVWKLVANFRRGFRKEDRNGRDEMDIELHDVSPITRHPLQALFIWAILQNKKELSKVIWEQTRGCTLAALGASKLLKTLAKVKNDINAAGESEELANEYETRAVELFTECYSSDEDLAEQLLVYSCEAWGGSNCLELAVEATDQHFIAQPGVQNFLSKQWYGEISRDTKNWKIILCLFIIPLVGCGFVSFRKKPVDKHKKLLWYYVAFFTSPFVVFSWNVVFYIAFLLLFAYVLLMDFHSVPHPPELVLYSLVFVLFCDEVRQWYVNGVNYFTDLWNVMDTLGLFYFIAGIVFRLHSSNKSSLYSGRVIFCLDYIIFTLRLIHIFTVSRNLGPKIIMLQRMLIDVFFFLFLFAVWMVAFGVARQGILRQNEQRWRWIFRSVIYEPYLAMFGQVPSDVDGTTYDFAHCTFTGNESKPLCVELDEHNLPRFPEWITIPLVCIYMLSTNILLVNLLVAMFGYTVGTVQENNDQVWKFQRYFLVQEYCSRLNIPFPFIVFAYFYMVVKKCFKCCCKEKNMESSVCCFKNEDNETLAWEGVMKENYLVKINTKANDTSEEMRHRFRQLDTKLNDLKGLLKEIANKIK
Sequence of Transient receptor potential cation channel subfamily M member 2 (O94759 whole entry): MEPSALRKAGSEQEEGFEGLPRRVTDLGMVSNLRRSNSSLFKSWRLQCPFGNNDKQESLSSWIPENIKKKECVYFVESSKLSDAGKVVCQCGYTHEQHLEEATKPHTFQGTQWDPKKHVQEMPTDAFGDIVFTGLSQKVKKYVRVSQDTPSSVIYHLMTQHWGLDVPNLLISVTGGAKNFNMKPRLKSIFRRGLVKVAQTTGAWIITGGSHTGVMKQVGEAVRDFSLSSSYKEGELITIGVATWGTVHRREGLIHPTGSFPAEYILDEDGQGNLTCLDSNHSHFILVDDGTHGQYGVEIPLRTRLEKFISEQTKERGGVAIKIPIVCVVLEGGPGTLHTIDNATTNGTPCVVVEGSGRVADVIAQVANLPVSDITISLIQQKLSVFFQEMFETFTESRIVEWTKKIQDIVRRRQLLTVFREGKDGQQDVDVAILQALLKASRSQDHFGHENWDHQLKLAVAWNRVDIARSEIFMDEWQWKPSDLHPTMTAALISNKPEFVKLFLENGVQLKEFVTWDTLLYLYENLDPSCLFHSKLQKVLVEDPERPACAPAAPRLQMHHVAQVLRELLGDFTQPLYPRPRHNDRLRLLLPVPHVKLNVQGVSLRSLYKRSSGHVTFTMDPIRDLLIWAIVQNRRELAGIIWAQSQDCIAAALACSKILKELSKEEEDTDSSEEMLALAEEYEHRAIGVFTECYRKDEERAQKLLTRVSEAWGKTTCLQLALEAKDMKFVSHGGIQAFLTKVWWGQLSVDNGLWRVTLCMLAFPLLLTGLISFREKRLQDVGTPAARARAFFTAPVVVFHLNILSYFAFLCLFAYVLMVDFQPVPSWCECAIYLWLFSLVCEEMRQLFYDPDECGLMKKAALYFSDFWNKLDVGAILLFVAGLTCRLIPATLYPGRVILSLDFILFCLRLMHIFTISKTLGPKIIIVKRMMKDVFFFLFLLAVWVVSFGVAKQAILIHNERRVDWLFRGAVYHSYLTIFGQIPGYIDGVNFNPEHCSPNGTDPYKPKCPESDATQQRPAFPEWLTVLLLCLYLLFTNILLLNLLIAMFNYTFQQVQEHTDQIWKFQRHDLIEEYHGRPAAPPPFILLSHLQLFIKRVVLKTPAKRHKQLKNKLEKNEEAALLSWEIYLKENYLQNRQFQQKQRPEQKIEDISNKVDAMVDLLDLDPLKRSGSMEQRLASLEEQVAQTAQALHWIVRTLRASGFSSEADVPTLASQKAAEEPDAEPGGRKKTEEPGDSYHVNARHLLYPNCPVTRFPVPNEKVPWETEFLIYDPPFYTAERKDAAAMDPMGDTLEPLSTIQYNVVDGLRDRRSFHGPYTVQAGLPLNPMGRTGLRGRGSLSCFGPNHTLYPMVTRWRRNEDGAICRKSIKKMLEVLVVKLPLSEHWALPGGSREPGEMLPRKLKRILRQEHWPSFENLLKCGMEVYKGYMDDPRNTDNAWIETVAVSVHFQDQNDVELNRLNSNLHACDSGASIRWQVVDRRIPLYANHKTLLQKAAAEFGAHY
Sequence of Transient receptor potential cation channel subfamily V member 1 (Q8NER1 whole entry): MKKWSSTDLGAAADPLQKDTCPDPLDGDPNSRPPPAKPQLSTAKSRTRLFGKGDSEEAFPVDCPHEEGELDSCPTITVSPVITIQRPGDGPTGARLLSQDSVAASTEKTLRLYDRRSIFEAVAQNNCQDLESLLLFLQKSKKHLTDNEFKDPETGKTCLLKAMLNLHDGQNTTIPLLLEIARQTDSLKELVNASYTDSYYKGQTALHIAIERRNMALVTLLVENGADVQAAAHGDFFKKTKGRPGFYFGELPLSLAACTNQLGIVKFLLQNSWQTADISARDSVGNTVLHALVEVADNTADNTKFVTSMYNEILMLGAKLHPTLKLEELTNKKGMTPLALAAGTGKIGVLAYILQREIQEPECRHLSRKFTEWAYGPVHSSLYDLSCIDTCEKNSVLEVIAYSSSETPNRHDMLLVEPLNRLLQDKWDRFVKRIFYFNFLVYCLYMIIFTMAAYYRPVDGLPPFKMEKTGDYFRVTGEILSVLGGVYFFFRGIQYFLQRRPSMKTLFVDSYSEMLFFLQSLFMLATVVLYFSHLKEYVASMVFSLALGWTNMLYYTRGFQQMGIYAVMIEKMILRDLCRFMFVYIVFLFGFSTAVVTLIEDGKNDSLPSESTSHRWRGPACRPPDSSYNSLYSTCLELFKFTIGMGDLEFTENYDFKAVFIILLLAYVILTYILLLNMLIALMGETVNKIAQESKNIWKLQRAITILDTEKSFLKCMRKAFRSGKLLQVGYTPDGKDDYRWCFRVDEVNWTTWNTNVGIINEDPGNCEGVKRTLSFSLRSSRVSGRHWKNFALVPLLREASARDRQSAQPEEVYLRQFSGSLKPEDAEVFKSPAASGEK

On to `N#Cc1ccc(O[C@H]2CN(S(=O)(=O)c3ccc(Cl)cc3Cl)C[C@@]2(O)CO)cc1F`, for which the IC50 is greater than 10 µM in [1]; greater than 10 µM in data set [2]; greater than 10 µM in data set [3]; 0.0025 µM in data set [5]; greater than 10 µM in data set [7]; greater than 10 µM in data set [8]. In data set [4], this compound returned a fraction unbound of 0.059. The compound also came in with a solubility in data set [6] of 360 µM (≈ 166 µg/mL). In addition, the CL free in the data set listed under Rattus norvegicus came out at 966 mL/min/kg.

By IC50 is commonly meant the midpoint of a concentration-inhibition curve. As usually defined, the fraction unbound is the share of the substance not bound to proteins or other matrix. A lower fraction unbound goes with extensive binding. What is called solubility is the concentration that dissolves in the medium under given conditions.
